This is an account of results in patent US12173089B2, “Inhibition of pulmonary fibrosis with nutlin-3A and peptides” (BOARD OF REGENTS, THE UNIVERSITY OF TEXAS SYSTEM, priority 2013, dated 2024).

One assay has as its system NL-fibroblasts. The assay can be described thus: miR-34a and p53 in NL-fibroblasts treated with CSP. Format: cell-based, human. As to the method:
(§1) FIGS. 6A-6D. CSP (CSP4) augments p53 expression via induction of miR-34a in FL(IPF)-fibroblasts. (FIG. 6A) NL- and FL-fibroblasts (n=3) were treated with PBS, CSP-4 (CSP) or control peptide (CP). RNA was analyzed for miR-34a by real-time PCR. (FIG. 6B) FL-fibroblasts were treated with PBS or CSP or CP with or without miR-34a antisense (miR-34a-AS) or pre-miR-34a or control miRNA (Ctr-miR). Conditioned media (CM) were immunoblotted for PAI-1 and lysates (CL) for p53 and β-actin. (FIG. 6C) FL-fibroblasts were treated with PBS or CSP or CP in the presence or absence of miR-34a-AS, pre-miR-34a or Ctr-miR. RNA was analyzed for changes in miR-34a by real-time PCR. […] Changes in p53, uPA, PAI-1 and col-I were later assessed to identify the minimum amino acids required for the CSP effects.
(§2) NL- and FL-fibroblasts were treated with PBS, CSP or CP and RNA analyzed for miR-34a by real-time PCR. Also, FL-fibroblasts were cultured in the presence of PBS or CSP or CP with or without miR-34a antisense (miR-34a-AS) or pre-miR-34a (o control miRNA. Conditioned medium (CM) from these cultures was immunoblotted for PAI-1 and cell lysates (CL) were immunoblotted for p53. In one experiment, FL-fibroblasts were treated with PBS or CSP or CP in the presence or absence of miR-34a-AS, pre-miR-34a or control miR. RNA was analyzed for changes in miR-34a by real-time PCR. Results appear in FIGS. 6A-6C.

The next assay has as its system BLM-treated mice. Kind of assay: Established lung fibrosis in BLM-treated mice (CT scanning, lung function, trichrome staining, hydroxyproline, desmosine). Format: in vivo. As to conditions: IP or IV administration beginning 14 d after BLM, WT mice; results reported herein and elsewhere. How it is done: FIGS. 10A-10D. Nutlin-3a (NTL) inhibits lung fibrosis in BLM-treated mice. Mice were exposed to BLM for 14 d to induce lung fibrosis. Saline treated mice were used as fibrosis controls. After 14 d, mice exposed to BLM were injected IV with either vehicle or nutlin-3 a (10 mg/kg body weight) (Zhang F et al. Drug Metab Dispos 39: 15-21, 2011) to determine whether nutlin-3 a inhibited established lung fibrosis. On day 21 after BLM injury, mice underwent CT scanning to assess the extent of fibrosis (FIG. 10A). One representative example is shown (n=9). (FIG. 10B) Lung compliance and resistance were measured in the same mice using the Flexivent system to assess improvement in lung function after nutlin-3 a treatment (n=9). (FIG. 10C) Lung sections were subjected to trichrome staining to assess lung architecture and collagen deposition as an indication of lung fibrosis. (FIG. 10D) Whole lung homogenates were analyzed for total collagen (hydroxyproline) and desmosine content as an independent assessment of changes in ECM.
FIGS. 11A-11D. CSP-4 inhibits established lung fibrosis and improves lung function. Mice were exposed to BLM to induce pulmonary fibrosis. After 14 d, the mice were injected IV with either vehicle or 1.5 mg/kg body weight of CSP-4 or control peptide (“CP”) of scrambled sequence. On d 21 after BLM injury, mice underwent CT scanning examine CSP-4 inhibition of established lung fibrosis (FIG. 11A). One representative example is shown (n=9). (FIG. 11B): Lung volumes were measured in the same mice (n=9) using quantitative CT renditions. (FIG. 11C): Lung sections were subjected to trichrome and H&E staining (not shown) to assess collagen deposition as an indicator of lung fibrosis. (FIG. 11D) Analysis of whole lung homogenates for total hydroxyproline content.
Mice exposed to BLM (or saline in controls) for 14 d to induce lung fibrosis were injected IV with nutlin-3a (10 mg/kg body weight) (Zhang et al, supra) or a vehicle control to determine and the effect on established lung fibrosis was examined. Fibrosis was evaluated by CT scanning and lung function (compliance and resistance) were measured using the Flexivent system. Lung sections were subjected to trichrome staining and H & E staining (the latter not shown) to assess lung architecture and collagen deposition as an indication of fibrosis. Finally, whole lung homogenates were analyzed for total collagen (hydroxyproline) and desmosine content (Bhandary Y P et al, Am J Physiol: Lung Cell Mol Physiol 302:L463-73, 2012; Bhandary Y P et al, Am J Pathol, 183: 131-43 2013) as an independent assessment of the ECM. […] Oral administration of Nutlin-3a 14 days after BLM injury likewise inhibited pulmonary fibrosis in mice.
Mice were exposed to BLM to induce pulmonary fibrosis. After 14 d, the mice were injected IV with either vehicle or 1.5 mg/kg body weight of CSP-4 (SEQ ID NO: 1) or control peptide (scrambled sequence of same amino acids; CP, SEQ ID NO:5) at 1.5 mg/kg body weight or vehicle was injected IV into mice exposed to BLM 14 days earlier. One week later, mice were tested by CT scanning to evaluate lung fibrosis. Lung volume was measured in the same mice using quantitative CT renditions.

A further assay concerns FL(IPF)-fibroblasts. Kind of assay: miR-34a (real-time PCR) and p53 (immunoblot) in FL-fibroblasts treated with CSP. Format: cell-based, human. As to conditions: controls PBS, CP. How it is done:
as §1, §2

Assay [1] has as its system lung epithelial cells (LECs). As to conditions: in vitro and in vivo; cited from earlier work.
In the next assay the test system is ATII cell. The following applies: BLM- or cigarette smoke-induced; cited from earlier work.
For assay [2] the following is noted: after BLM; cited from earlier work.

Take “DGIWKASFTTFTVTKYWFYR (Synthetic peptide - Scaffolding domain of human caveolin-1) [CSP, 20 residue peptide which is the scaffolding domain of caveolin-1]”: in the assay on NL-fibroblasts, the p53 expression result is reported as “not in NL-fibroblasts”. Further, the established lung fibrosis result in the assay with BLM-treated mice is “mitigates”. In the assay on FL(IPF)-fibroblasts, the miR-34a expression entry was “significantly increased” and the p53 expression entry is “significantly increased”. Also, the “BLM-induced apoptosis of LECs” value in assay [1] was “protected”. For the same sequence, in the assay with ATII cell, the ATII cell apoptosis result was “inhibited” and the “ATII cell p53 expression” value was “inhibited”. Further, the subsequent pulmonary fibrosis result in assay [2] was “prevented”.
Take “NYHYLESSMTALYTLGH [PP 2, 17 residue peptide of the inventors' earlier application]”: the “BLM-induced apoptosis of LECs” value in assay [1] was “protected”. Besides, in assay [2], the subsequent pulmonary fibrosis result was “prevented”.
